Results taken from ChEMBL document CHEMBL4184249, “Structural development of tetrachlorophthalimides as liver X receptor β (LXRβ)-selective agonists with improved aqueous solubility” (Bioorg Med Chem Lett, 2018).
Converted amounts (≈) assume the structure as drawn. The source made the active and inactive calls. No cut-off for these calls is given here.

Tests used:
[1] = target: T1, Oxysterols receptor LXR-alpha (Homo sapiens) (UniProt Q13133); assay: Agonist activity at human LXRalpha expressed in HEK293 cells co-expressing CMX-beta-galactosidase at 30 uM incubated for 16 hrs by luciferase reporter gene assay; type: cell-based
T1 sequence (whole entry): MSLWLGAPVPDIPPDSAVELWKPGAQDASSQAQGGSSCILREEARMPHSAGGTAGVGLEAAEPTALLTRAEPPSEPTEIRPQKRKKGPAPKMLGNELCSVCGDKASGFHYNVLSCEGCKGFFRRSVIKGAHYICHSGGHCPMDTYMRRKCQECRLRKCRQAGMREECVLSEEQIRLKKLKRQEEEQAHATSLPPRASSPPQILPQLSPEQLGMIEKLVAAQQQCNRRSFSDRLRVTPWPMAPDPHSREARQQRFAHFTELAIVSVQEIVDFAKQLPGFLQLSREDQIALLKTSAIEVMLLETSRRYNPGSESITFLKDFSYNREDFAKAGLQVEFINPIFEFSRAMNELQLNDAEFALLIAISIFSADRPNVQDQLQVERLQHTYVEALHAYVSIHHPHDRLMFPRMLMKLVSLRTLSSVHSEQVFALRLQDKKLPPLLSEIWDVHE

[2] = target: T2, Oxysterols receptor LXR-beta (Homo sapiens) (UniProt P55055); assay: Agonist activity at human LXRbeta expressed in HEK293 cells co-expressing CMX-beta-galactosidase incubated for 16 hrs by luciferase reporter gene assay relative to T0901317; type: cell-based
T2 sequence (whole entry): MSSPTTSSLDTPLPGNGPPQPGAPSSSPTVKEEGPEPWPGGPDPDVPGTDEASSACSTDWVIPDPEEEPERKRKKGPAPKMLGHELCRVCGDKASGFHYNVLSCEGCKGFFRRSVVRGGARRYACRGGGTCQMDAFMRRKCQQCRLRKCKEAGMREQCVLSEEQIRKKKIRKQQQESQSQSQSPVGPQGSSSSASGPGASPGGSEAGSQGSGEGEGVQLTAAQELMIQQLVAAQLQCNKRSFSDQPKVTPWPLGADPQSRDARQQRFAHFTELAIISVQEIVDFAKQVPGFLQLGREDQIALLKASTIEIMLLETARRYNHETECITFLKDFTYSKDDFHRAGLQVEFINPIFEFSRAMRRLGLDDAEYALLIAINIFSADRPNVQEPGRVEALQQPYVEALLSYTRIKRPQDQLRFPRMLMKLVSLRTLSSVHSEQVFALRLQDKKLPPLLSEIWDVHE

[3] = Aqueous solubility of the compound in EtOH: 1/15 M phosphate buffer at pH 7.4 1:1 by HPLC method; type: physicochemical
[4] = target: T3, Peroxisome proliferator-activated receptor alpha (Homo sapiens) (UniProt Q07869); assay: Agonist activity at GAL4-tagged PPARalpha (unknown origin) expressed in HEK293 cells co-expressing CMX-beta-galactosidase at 0.3 to 30 uM incubated for 16 hrs by luciferase reporter gene assay; type: cell-based
T3 sequence (whole entry): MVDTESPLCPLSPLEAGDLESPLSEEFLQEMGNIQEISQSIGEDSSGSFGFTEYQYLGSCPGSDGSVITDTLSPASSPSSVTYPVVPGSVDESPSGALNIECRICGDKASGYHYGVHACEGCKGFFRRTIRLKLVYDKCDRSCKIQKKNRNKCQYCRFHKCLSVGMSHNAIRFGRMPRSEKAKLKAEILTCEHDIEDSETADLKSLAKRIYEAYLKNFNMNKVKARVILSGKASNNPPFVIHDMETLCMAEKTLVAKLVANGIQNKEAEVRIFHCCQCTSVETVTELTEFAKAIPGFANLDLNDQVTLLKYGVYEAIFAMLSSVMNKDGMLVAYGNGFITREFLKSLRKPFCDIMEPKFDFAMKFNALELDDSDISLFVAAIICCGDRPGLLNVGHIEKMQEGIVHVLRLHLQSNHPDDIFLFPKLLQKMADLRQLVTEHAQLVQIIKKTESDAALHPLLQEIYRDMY

[5] = target: T2, Oxysterols receptor LXR-beta (Homo sapiens); assay: Agonist activity at LXRbeta in human THP1 cells assessed as increase in ABCA1 mRNA expression at 1 uM by real-time quantitative RT-PCR method; type: cell-based
[6] = target: T1, Oxysterols receptor LXR-alpha (Homo sapiens); assay: Agonist activity at LXRalpha ligand-binding domain (unknown origin) at 0.3 uM incubated for 1.5 hrs using fluorescein-labeled coactivator peptide by TR-FRET competitive binding assay relative to T0901317
[7] = target: T4, Retinoic acid receptor gamma (Homo sapiens) (UniProt P13631); assay: Agonist activity at GAL4-tagged RARgamma (unknown origin) expressed in HEK293 cells co-expressing CMX-beta-galactosidase at 0.3 to 30 uM incubated for 16 hrs by luciferase reporter gene assay; type: cell-based
T4 sequence (whole entry): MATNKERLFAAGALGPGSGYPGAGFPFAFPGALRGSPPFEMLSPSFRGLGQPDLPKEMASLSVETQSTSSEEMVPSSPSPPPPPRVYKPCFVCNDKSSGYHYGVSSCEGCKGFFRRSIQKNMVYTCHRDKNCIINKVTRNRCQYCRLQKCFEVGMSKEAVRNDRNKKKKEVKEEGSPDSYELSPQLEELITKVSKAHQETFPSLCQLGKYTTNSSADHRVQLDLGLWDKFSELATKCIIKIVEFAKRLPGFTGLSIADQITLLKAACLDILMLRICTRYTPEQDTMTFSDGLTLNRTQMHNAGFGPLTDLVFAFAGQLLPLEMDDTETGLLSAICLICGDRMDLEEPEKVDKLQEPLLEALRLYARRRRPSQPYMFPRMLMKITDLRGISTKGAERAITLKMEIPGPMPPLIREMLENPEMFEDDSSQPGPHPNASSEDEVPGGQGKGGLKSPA

[8] = target: T5, Peroxisome proliferator-activated receptor gamma (Homo sapiens) (UniProt P37231); assay: Agonist activity at GAL4-tagged PPARgamma (unknown origin) expressed in HEK293 cells co-expressing CMX-beta-galactosidase at 0.3 to 30 uM incubated for 16 hrs by luciferase reporter gene assay; type: cell-based
T5 sequence (whole entry): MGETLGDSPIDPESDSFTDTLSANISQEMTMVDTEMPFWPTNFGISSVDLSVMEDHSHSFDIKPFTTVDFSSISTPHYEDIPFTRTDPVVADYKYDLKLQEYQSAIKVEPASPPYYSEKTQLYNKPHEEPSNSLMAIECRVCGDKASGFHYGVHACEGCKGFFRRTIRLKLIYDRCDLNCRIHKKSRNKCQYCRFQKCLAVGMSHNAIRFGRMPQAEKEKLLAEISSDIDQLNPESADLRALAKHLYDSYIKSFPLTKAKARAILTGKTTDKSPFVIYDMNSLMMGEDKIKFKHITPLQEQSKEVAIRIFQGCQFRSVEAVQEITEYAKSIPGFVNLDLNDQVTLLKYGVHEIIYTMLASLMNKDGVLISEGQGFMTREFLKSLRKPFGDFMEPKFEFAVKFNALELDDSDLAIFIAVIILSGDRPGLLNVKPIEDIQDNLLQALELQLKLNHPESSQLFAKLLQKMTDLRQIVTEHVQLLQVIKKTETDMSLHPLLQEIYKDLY

With O=C1c2c(Cl)c(Cl)c(Cl)c(Cl)c2C(=O)N1c1ccccc1/C=C/c1cccs1 as the compound, how does the Activity [1] read?
The Activity was “inactive”.

What about the Efficacy [2] of the same compound?
Its Efficacy is 149%.

And the solubility [3]?
Its solubility is 0.015 µg/mL (≈ 0.032 µM).

And the Activity [4]?
Its Activity is “inactive”.

What about the Activity [5] of the same compound?
The Activity was “Active”.

What about the Efficacy [6] of the same compound?
The Efficacy was 6%.

What about the Activity [7] of the same compound?
The Activity was “inactive”.

And the Activity [8]?
The Activity was “inactive”.
